Data: publication PMC7463537, “Synthesis and Evaluation of Antimicrobial and Cytotoxic Activity of Oxathiine-Fused Quinone-Thioglucoside Conjugates of Substituted 1,4-Naphthoquinones” (Molecules, 2020)

Tests used:
P. aeruginosa ATCC 27853 = assay: Agar diffusion method, P. aeruginosa; format: cell-based, Pseudomonas aeruginosa; conditions: for zone of inhibition at 100 µg/disc: ATCC27853, 100 µg/well
Method: (§1) Elyakov Pacific Institute of Bioorganic Chemistry, Far East Branch, Russian Academy of Sciences. Test substances were dissolved in DMSO at concentrations of 1.0, 0.1, and 0.01 mg/mL. All strains were grown on trypticase-soy agar TSA (BBL) at 37 °C. […] After incubation of the dishes at 37 °C for 24 h (for bacteria) and 48 h (for the fungus) at 28 °C, the diameters of the growth inhibition zones of pathogenic microorganisms (mm) were measured, including the diameter of the wells. Commercial antibacterial drugs (vancomicin and gentamicin) and antifungal (clotrimazol) drugs were used as positive controls.

B. cereus ATCC 10702 = assay: Agar diffusion method, B. cereus; format: cell-based, Bacillus cereus; conditions: for zone of inhibition at 100 µg/disc: ATCC10702, 24 h, 100 µg/well, 24 h, incl. 7 mm well
Method: as §1

S. aureus ATCC 21027 = assay: Agar diffusion method, S. aureus; format: cell-based, Staphylococcus aureus; parameters: key to Diameter of Zone Inhibition, S. aureus: Zones within 20–40 mm mean strong antibiotic activity; zones up to 20 mm—moderate; ≤10 mm—weak; +—insignificant; conditions: for zone of inhibition at 100 µg/disc: ATCC21027, 24 h
Method: as §1

E. coli K-12 = assay: Agar diffusion method, E. coli; format: cell-based, Escherichia coli
Method: as §1

C. albicans KMM 453 = assay: Agar diffusion method, C. albicans; format: cell-based; conditions: Candida albicans, read-out: Diameter of Zone Inhibition, C. albicans; for zone of inhibition at 100 µg/disc: KMM453, 48 h, 100 µg/well, 48 h at 28 °C
Method: as §1

[1] = Cytotoxicity, MTT assay, Jb6 Cl 41-5a normal epithelial cells; conditions: mouse, Jb6 Cl 41-5a normal epithelial cells
[2] = test system: mouse ascites Ehrlich carcinoma; assay: Cytotoxicity, nonspecific esterase (FDA) assay, ascites Ehrlich carcinoma cells; conditions: for EC50: Mus musculus, Ehrlich, 24 h, read-out: Cytotoxicity (EC50), Ascites Ehrlich Carcinoma; for Selectivity Index (SI), Ascitic Ehrlich Carcinoma: SI = EC50 (Jb6 Cl 41-5a normal cells)/EC50 (tumor cells)
[3] = test system: mouse neuroblastoma (Neuro 2a); assay: Cytotoxicity, MTT assay, Neuro 2a cells; conditions: for EC50: N2a, 24 h, read-out: Cytotoxicity (EC50), Neuro 2a; for Selectivity Index (SI), Neuro-2a: SI = EC50 (Jb6 Cl 41-5a normal cells)/EC50 (tumor cells)
[4] = test system: human cervical cancer (HeLa); assay: Cytotoxicity, MTT assay, HeLa cells; conditions: for EC50: Homo sapiens, HeLa, 24 h, read-out: Cytotoxicity (EC50), HeLa; for Selectivity Index (SI), HeLa: SI = EC50 (Jb6 Cl 41-5a normal cells)/EC50 (tumor cells)
[5] = Pseudomonas aeruginosa, read-out: Diameter of Zone Inhibition, P. aeruginosa
[6] = Bacillus cereus, read-out: Diameter of Zone Inhibition, B. cereus
[7] = Staphylococcus aureus, 100 µg/well, 24 h, incl. 7 mm well, read-out: Diameter of Zone Inhibition, S. aureus
[8] = Escherichia coli, K12, 100 µg/well, read-out: Diameter of Zone Inhibition, E. coli

SMILES | zone of inhibition at 100 µg/disc (C. albicans KMM 453) | EC50 at 24 h [1] | zone of inhibition at 100 µg/disc (P. aeruginosa ATCC 27853; [5]) | EC50 [2] | Selectivity Index (SI), Ascitic Ehrlich Carcinoma [2] | zone of inhibition at 100 µg/disc (B. cereus ATCC 10702; [6]) | EC50 [3] | Selectivity Index (SI), Neuro-2a [3] | zone of inhibition at 100 µg/disc (S. aureus ATCC 21027; [7]) | EC50 [4] | Selectivity Index (SI), HeLa [4] | melting point | zone of inhibition at 100 µg/disc (E. coli K-12; [8]) | other results
CN[C@H](CC(C)C)C(=O)N[C@H]1C(=O)N[C@@H](CC(N)=O)C(=O)N[C@H]2C(=O)N[C@H]3C(=O)N[C@H](C(=O)N[C@H](C(=O)O)c4cc(O)cc(O)c4-c4cc3ccc4O)[C@H](O)c3ccc(c(Cl)c3)Oc3cc2cc(c3O[C@@H]2O[C@H](CO)[C@@H](O)[C@H](O)[C@H]2O[C@H]2C[C@](C)(N)[C@H](O)[C@H](C)O2)Oc2ccc(cc2Cl)[C@H]1O [Vancomicin (disk), reference compound] |  |  |  |  |  |  |  |  |  |  |  |  |  | Diameter of Zone Inhibition, P. aeruginosa (P. aeruginosa ATCC 27853; 30 µg (disk)): 0 mm; Diameter of Zone Inhibition, B. cereus (B. cereus ATCC 10702; 30 µg (disk)): 20 ± 3 mm; Diameter of Zone Inhibition, S. aureus (S. aureus ATCC 21027; 30 µg (disk)): 20 ± 2 mm; Diameter of Zone Inhibition, E. coli (E. coli K-12; 30 µg (disk)): 0 mm
CNC(C)C1CCC(N)C(OC2C(N)CC(N)C(OC3OCC(C)(O)C(NC)C3O)C2O)O1 (centres unmarked) [Gentamicin (disk), reference compound] |  |  |  |  |  |  |  |  |  |  |  |  |  | zone of inhibition at 10 µg/disc (P. aeruginosa ATCC 27853; Pseudomonas aeruginosa, ATCC27853, 10 µg (disk), read-out: Diameter of Zone Inhibition, P. aeruginosa): 18 ± 2 mm; zone of inhibition at 10 µg/disc (B. cereus ATCC 10702; Bacillus cereus, ATCC10702, 10 µg/well (gentamicin: disk), read-out: Diameter of Zone Inhibition, B. cereus): 25 ± 1 mm; zone of inhibition at 10 µg/disc (S. aureus ATCC 21027; Staphylococcus aureus, ATCC21027, 10 µg/well (gentamicin: disk), read-out: Diameter of Zone Inhibition, S. aureus): 25 ± 2 mm; zone of inhibition at 10 µg/disc (E. coli K-12; Escherichia coli, K12, 10 µg (disk), read-out: Diameter of Zone Inhibition, E. coli): 22 ± 3 mm
COc1c(Cl)c(Cl)c(OC)c2c1C(=O)C1=C(S[C@@H]3OC[C@@H](O)[C@H](O)[C@H]3O1)C2=O [Compound 18c, (3R,4S,4aR,12aS)-8,9-Dichloro-3,4-dihydroxy-7,10-dimethoxy-3,4,4a,12a-tetrahydro-2H-naphtho[2,3-b]pyrano[2,3-e][2,5]oxathiine-6,11-dione] | 0 mm | 3.8 µM | 0 mm | 4.5 µM | 0.8 | < 20 mm | 4.1 µM | 0.9 | < 20 mm | 10.1 µM | 0.4 | 277 to 279 °C | 0 mm | Diameter of Zone Inhibition, E. coli (E. coli K-12; 100 µg/well): not active
COc1c(Cl)c(Cl)c(OC)c2c1C(=O)C1=C(S[C@@H]3OC[C@H](O)[C@H](O)[C@H]3O1)C2=O [Compound 18d, (3S,4S,4aR,12aS)-8,9-Dichloro-3,4-dihydroxy-7,10-dimethoxy-3,4,4a,12a-tetrahydro-2H-naphtho[2,3-b]pyrano[2,3-e][2,5]oxathiine-6,11-dione] | 0 mm | 4.3 µM | 0 mm | 4.1 µM | 1 | < 20 mm | 2.8 µM | 1.5 | < 20 mm | 8.7 µM | 0.5 | 286 to 289 °C | 0 mm | Diameter of Zone Inhibition, E. coli (E. coli K-12; 100 µg/well): not active
Clc1ccccc1C(c1ccccc1)(c1ccccc1)n1ccnc1 [Clotrimazol (disk), reference compound] |  |  |  |  |  |  |  |  |  |  |  |  |  | zone of inhibition at 10 µg/disc (C. albicans KMM 453; KMM453, 10 µg (disk)): 15 ± 2 mm
COc1c(Cl)c(Cl)c(OC)c2c1C(=O)C1=C(S[C@@H]3O[C@H](CO)[C@@H](O)[C@H](O)[C@H]3O1)C2=O [Compound 18a, (2R,3S,4S,4aR,12aS)-8,9-Dichloro-3,4-dihydroxy-2-hydroxymethyl-7,10-dimethoxy-3,4,4a,12a-tetrahydro-2H-naphtho[2,3-b]pyrano[2,3-e][2,5]oxathiine-6,11-dione] | 0 mm | 1.5 µM | 0 mm | 8.8 µM | 0.2 | 0 mm | 2.4 µM | 0.6 |  | 10.9 µM | 0.1 | 222 to 224 °C | 0 mm | Diameter of Zone Inhibition, S. aureus (S. aureus ATCC 21027; 100 µg/well, 24 h, incl. 7 mm well): +
COc1c(Cl)c(Cl)c(OC)c2c1C(=O)C1=C(S[C@@H]3O[C@H](CO)[C@H](O)[C@H](O)[C@H]3O1)C2=O [Compound 18b, (2R,3R,4S,4aR,12aS)-8,9-Dichloro-3,4-dihydroxy-2-(hydroxymethyl)-7,10-dimethoxy-3,4,4a,12a-tetrahydro-2H-naphtho[2,3-b]pyrano[2,3-e][2,5]oxathiine-6,11-dione] | 0 mm | 2.9 µM | 0 mm | 1.1 µM | 2.6 | 0 mm | 2.9 µM | 1 | 0 mm | 8 µM | 0.4 | 276 to 279 °C | 0 mm | 
O=C1C2=C(S[C@@H]3OC[C@@H](O)[C@H](O)[C@H]3O2)C(=O)c2c(O)cccc21 [Compound 19c, (3R,4S,4aR,12aS)-3,4,10-Trihydroxy-3,4,4a,12a-tetrahydro-2H-naphtho[2,3-b]pyrano[2,3-e][2,5]oxathiine-6,11-dione] | 0 mm | 5.9 µM | 0 mm | 7.4 µM | 0.8 | 10 ± 2 mm | 13.3 µM | 0.4 | 8 ± 1 mm | 4.9 µM | 1.2 | 348 to 350 °C (dec.) | 0 mm | 
COc1ccc(OC)c2c1C(=O)C1=C(S[C@@H]3OC[C@@H](O)[C@H](O)[C@H]3O1)C2=O [Compound 17c, (3R,4S,4aR,12aS)-3,4-Dihydroxy-7,10-dimethoxy-3,4,4a,12a-tetrahydro-2H-naphtho[2,3-b]pyrano[2,3-e][2,5]oxathiine-6,11-dione] | 0 mm | > 25 µM | 0 mm | > 25 µM |  | 0 mm | > 25 µM |  | 0 mm | > 25 µM |  | 329 to 332 °C | 0 mm | 
